Measurements as given in ChEMBL document CHEMBL1159116, “Discovery of C-imidazole azaheptapyridine FPT inhibitors” (Bioorg Med Chem Lett, 2010).

Key:
NIH3T3 = experiment: Cytotoxicity against mouse H-Ras transformed NIH/3T3 cells by soft agar colony formation assay; type: functional, cell-based
[1] = Inhibition of farnesyl protein transferase assessed as transfer of [3H]farnesyl from [3H]farnesyl pyrophosphate to […]
Rattus norvegicus = experiment: (§1) AUC (0 to 6 hrs) in rat at 10 mg/kg; type: ADME, organism-based, Plasma; parameters: time < 6 hr, dose 10 mg/kg; settings: in vivo, 6 h
[2] = as §1; type: ADME, organism-based, Plasma; parameters: time < 6 hr, dose 10 mg/kg; settings: plasma
[3] = Mus musculus, NIH3T3, read-out: IC50

Row | IC50 [1] [nM] | AUC (Rattus norvegicus) [µM·h] | AUC(0-t) at 6 h [2] [µM·h] | SMILES | IC50 (NIH3T3; [3]) [nM] | IC50 (NIH3T3; nih3t3)
1 | 0.76 | – | – | Cn1cncc1[C@H](O)C1=Cc2cccnc2[C@@H](N2CCN(C(=O)OC3CCCC3)CC2)c2ccc(Cl)cc21 | 0.5 | –
2 | 0.29 | – | – | Cn1cncc1CC1=Cc2cccnc2[C@@H](N2CCN(C(=O)Nc3ccc(C#N)cc3)CC2)c2ccc(Cl)cc21 | 0.5 | –
3 | 0.3 | – | – | Cn1cncc1[C@H](O)C1=Cc2cccnc2[C@@H](N2CCN(C(=O)OC3(C)CCCCC3)CC2)c2ccc(Cl)cc21 | 1 | –
4 | 0.5 | 0.1 | – | Cn1cncc1[C@H](O)C1=Cc2cccnc2[C@@H](N2CCN(C(=O)Nc3ccc(C#N)cc3)CC2)c2ccc(Cl)cc21 | 0.5 | –
5 | 4.8 | – | – | CO[C@H](C1=Cc2cccnc2[C@@H](N2CCN(C(=O)OC(C)(C)C)CC2)c2ccc(Cl)cc21)c1cncn1C | 10 | –
6 | 1 | – | – | Cn1cncc1[C@H](O)C1=Cc2cccnc2[C@@H](N2CCN(C(=O)OC3CCCCC3)CC2)c2ccc(Cl)cc21 | 1 | –
7 | 0.31 | – | – | N#Cc1ccc(NC(=O)N2CCN([C@H]3c4ccc(Cl)cc4C(Cc4cnc[nH]4)=Cc4cccnc43)CC2)cc1 | 4 | –
8 | 0.4 | – | – | Cn1cncc1[C@H](O)C1=Cc2cccnc2[C@@H](N2CCN(C(=O)NC(C)(C)C)CC2)c2ccc(Cl)cc21 | 0.5 | –
9 | 2.1 | – | – | CO[C@@H](C1=Cc2cccnc2[C@@H](N2CCN(C(=O)OC(C)(C)C)CC2)c2ccc(Cl)cc21)c1cncn1C | 4 | –
10 | 5.5 | – | – | CC(=O)O[C@H](C1=Cc2cccnc2[C@@H](N2CCN(C(=O)OC(C)(C)C)CC2)c2ccc(Cl)cc21)c1cncn1C | 1 | –
11 | 9.6 | – | – | Cn1cncc1CC1=Cc2cccnc2[C@H](N2CCN(C(=O)Nc3ccc(C#N)cc3)CC2)c2ccc(Cl)cc21 | – | Not Active
12 | 0.38 | – | 2.57 | Cn1cncc1[C@H](O)C1=Cc2cccnc2[C@@H](N2CCN(C(=O)OC(C)(C)C)CC2)c2ccc(Cl)cc21 | 0.5 | –
13 | 0.13 | – | – | Cn1cncc1[C@H](O)C1=Cc2cccnc2[C@@H](N2CCN(C(=O)NCc3ccccc3)CC2)c2ccc(Cl)cc21 | 2.7 | –
14 | 12 | – | – | Cn1cncc1[C@@H](O)C1=Cc2cccnc2[C@@H](N2CCN(C(=O)OC(C)(C)C)CC2)c2ccc(Cl)cc21 | – | Not Active
15 | 0.75 | – | – | CC(C)OC(=O)N1CCN([C@H]2c3ccc(Cl)cc3C([C@@H](O)c3cncn3C)=Cc3cccnc32)CC1 | 0.5 | –
16 | 0.47 | – | – | Cn1cncc1[C@H](O)C1=Cc2cccnc2[C@@H](N2CCN(C(=O)NC3CCCCC3)CC2)c2ccc(Cl)cc21 | 18 | –
